≈ marks a conversion by molar mass, not a printed value.
Experiments:
Format in all cases: cell-based
[1] = system: P. aeruginosa MP-3; test: MIC determination by CLSI broth dilution, P. aeruginosa MP-3; details: Pseudomonas aeruginosa, MP3, strain MP-3
[2] = system: K. pneumoniae MP-546; test: MIC determination by CLSI broth dilution, K. pneumoniae MP-546; details: Klebsiella pneumoniae, MP546, CLSI broth dilution; strain MP-546
[3] = system: A. baumannii MP-15; test: MIC determination by CLSI broth dilution, A. baumannii MP-15; details: Acinetobacter baumannii, MP15, strain MP-15, read-out: MIC A. baumanii MP-15
[4] = system: S. aureus MP-12; test: microbe, parasite or virus in culture; details: Staphylococcus aureus, MP12, read-out: MIC S. aureus MP-12
[5] = system: E. coli MP-4; test: MIC determination by CLSI broth dilution, E. coli MP-4; details: Escherichia coli, MP4, CLSI broth dilution; strain MP-4

Compound	MIC [1] [µg/mL]	MIC [2] [µg/mL]	MIC [3] [µg/mL]	MIC [4] [µg/mL]	MIC [5] [µg/mL]
CO[C@]1(C)C[C@@H](C)CN(C)[C@@H](CC2CCN(CC(C)C)CC2)COC(=O)C(C)(C)C(=O)[C@H](C)[C@H]1O[C@@H]1O[C@H](C)C[C@H](N(C)C)[C@H]1O [Compound 67]	> 32	4 to 32 (≈ 6.12 to 48.9 µM)	> 32	> 32	4 to 32 (≈ 6.12 to 48.9 µM)
CO[C@]1(C)C[C@@H](C)CN(C)[C@@H](CC2CCN(C(C)C)CC2)COC(=O)C(C)(C)C(=O)[C@H](C)[C@H]1O[C@@H]1O[C@H](C)C[C@H](N(C)C)[C@H]1O [Compound 68]	> 32	4 to 32 (≈ 6.25 to 50 µM)	> 32	> 32	4 to 32 (≈ 6.25 to 50 µM)
CO[C@]1(C)C[C@@H](C)CN(C)[C@@H](CC2CCN(C3CC3)CC2)COC(=O)C(C)(C)C(=O)[C@H](C)[C@H]1O[C@@H]1O[C@H](C)C[C@H](N(C)C)[C@H]1O [Compound 69]	> 32	4 to 32 (≈ 6.27 to 50.2 µM)	> 32	4 to 32 (≈ 6.27 to 50.2 µM)	4 to 32 (≈ 6.27 to 50.2 µM)
CCCCCCCN1CCC(C[C@H]2COC(=O)C(C)(C)C(=O)[C@H](C)[C@@H](O[C@@H]3O[C@H](C)C[C@H](N(C)C)[C@H]3O)[C@](C)(OC)C[C@@H](C)CN2C)CC1 [Compound 70]	> 32	4 to 32 (≈ 5.75 to 46 µM)	> 32	> 32	< 4
CO[C@]1(C)C[C@@H](C)CN(C)[C@@H](CC2CCN(CC[C@@H](C)CCC=C(C)C)CC2)COC(=O)C(C)(C)C(=O)[C@H](C)[C@H]1O[C@@H]1O[C@H](C)C[C@H](N(C)C)[C@H]1O [Compound 71]	> 32	> 32	> 32	> 32	4 to 32 (≈ 5.43 to 43.5 µM)
CO[C@]1(C)C[C@@H](C)CN(C)[C@@H](CC2CCN(CC3CCCCC3)CC2)COC(=O)C(C)(C)C(=O)[C@H](C)[C@H]1O[C@@H]1O[C@H](C)C[C@H](N(C)C)[C@H]1O [Compound 72]	> 32	4 to 32 (≈ 5.76 to 46.1 µM)	> 32	> 32	< 4
CO[C@]1(C)C[C@@H](C)CN(C)[C@@H](CN2CCN(S(C)(=O)=O)CC2)[C@H](C)OC(=O)C(C)(C)C(=O)[C@H](C)[C@H]1O[C@@H]1O[C@H](C)C[C@H](N(C)C)[C@H]1O [Compound 80, (2S,3S,6R,8R,9R,10R)-9-(((2S,3R,4S,6R)-4-(dimethylamino)-3-hydroxy-6-methyltetrahydro-2H-pyran-2-yl)oxy)-8-methoxy-2,4,6,8,10,12,12-heptamethyl-3-((4-(methylsulfonyl)piperazin-1-yl)methyl)-1-oxa-4-azacyclotridecane-11,13-dione]	> 32	> 32	> 32	4 to 32 (≈ 5.79 to 46.3 µM)	> 32
CO[C@]1(C)C[C@@H](C)CN(C)[C@@H](CN2CCN(S(=O)(=O)c3cn(C)cn3)CC2)[C@H](C)OC(=O)C(C)(C)C(=O)[C@H](C)[C@H]1O[C@@H]1O[C@H](C)C[C@H](N(C)C)[C@H]1O [Compound 81, (2S,3S,6R,8R,9R,10R)-9-(((2S,3R,4S,6R)-4-(dimethylamino)-3-hydroxy-6-methyltetrahydro-2H-pyran-2-yl)oxy)-8-methoxy-2,4,6,8,10,12,12-heptamethyl-3-((4-((1-methyl-1H-imidazol-4-yl)sulfonyl)piperazin-1-yl)methyl)-1-oxa-4-azacyclotridecane-11,13-dione]	> 32	> 32	> 32	4 to 32 (≈ 5.28 to 42.3 µM)	> 32
CO[C@]1(C)C[C@@H](C)CN(C)[C@@H](CCCN2CCCCC2)COC(=O)C(C)(C)C(=O)[C@H](C)[C@H]1O[C@@H]1O[C@H](C)C[C@H](N(C)C)[C@H]1O [Compound 83, (3S,6R,8R,9R,10R)-9-(((2S,3R,4S,6R)-4-(dimethylamino)-3-hydroxy-6-methyltetrahydro-2H-pyran-2-yl)oxy)-8-methoxy-4,6,8,10,12,12-hexamethyl-3-(3-(piperidin-1-yl)propyl)-1-oxa-4-azacyclotridecane-11,13-dione]	> 32	< 4	> 32	4 to 32 (≈ 6.39 to 51.1 µM)	< 4
CO[C@]1(C)C[C@@H](C)CN(C)[C@@H](C(=O)N2CCN(C(C)C)CC2)[C@H](C)OC(=O)C(C)(C)C(=O)[C@H](C)[C@H]1O[C@@H]1O[C@H](C)C[C@H](N(C)C)[C@H]1O [Compound 91, (2S,3R,6R,8R,9R,10R)-9-(((2S,3R,4S,6R)-4-(dimethylamino)-3-hydroxy-6-methyltetrahydro-2H-pyran-2-yl)oxy)-3-(4-isopropylpiperazine-1-carbonyl)-8-methoxy-2,4,6,8,10,12,12-heptamethyl-1-oxa-4-azacyclotridecane-11,13-dione]	> 32	> 32	> 32	> 32	> 32
CO[C@]1(C)C[C@@H](C)CN(C)[C@@H](C(=O)N2CCN(C)CC2)[C@H](C)OC(=O)C(C)(C)C(=O)[C@H](C)[C@H]1O[C@@H]1O[C@H](C)C[C@H](N(C)C)[C@H]1O [Compound 97, (2S,3R,6R,8R,9R,10R)-9-(((2S,3R,4S,6R)-4-(dimethylamino)-3-hydroxy-6-methyltetrahydro-2H-pyran-2-yl)oxy)-8-methoxy-2,4,6,8,10,12,12-heptamethyl-3-(4-methylpiperazine-1-carbonyl)-1-oxa-4-azacyclotridecane-11,13-dione]	> 32	> 32	> 32	> 32	> 32
CO[C@]1(C)C[C@@H](C)CN(C)[C@@H](CN(C)Cc2nccn2C)COC(=O)C(C)(C)C(=O)[C@H](C)[C@H]1O[C@@H]1O[C@H](C)C[C@H](N(C)C)[C@H]1O [Compound 104, (3S,6R,8R,9R,10R)-9-(((2S,3R,4S,6R)-4-(Dimethylamino)-3-hydroxy-6-methyltetrahydro-2H-pyran-2-yl)oxy)-8-methoxy-4,6,8,10,12,12-hexamethyl-3-((methyl((1-methyl-11H-imidazol-2-yl)methyl)amino)methyl)-1-oxa-4-azacyclotridecane-11,13-dione]	> 32	> 32	> 32	> 32	4 to 32 (≈ 6.27 to 50.2 µM)
CO[C@]1(C)C[C@@H](C)CN(C)[C@@H](CN2CCN(C(=O)C(F)(F)F)CC2)[C@H](C)OC(=O)C(C)(C)C(=O)[C@H](C)[C@H]1O[C@@H]1O[C@H](C)C[C@H](N(C)C)[C@H]1O [Compound 109, (2S,3S,6R,8R,9R,10R)-9-(((2S,3R,4S,6R)-4-(dimethylamino)-3-hydroxy-6-methyltetrahydro-2H-pyran-2-yl)oxy)-8-methoxy-2,4,6,8,10,12,12-heptamethyl-3-((4-(2,2,2-trifluoroacetyl)piperazin-1-yl)methyl)-1-oxa-4-azacyclotridecane-11,13-dione]	> 32	> 32	> 32	4 to 32 (≈ 5.64 to 45.1 µM)	4 to 32 (≈ 5.64 to 45.1 µM)
CO[C@]1(C)C[C@@H](C)CN(C)[C@@H](CN2CCN(C(=O)C(C)(C)C)CC2)[C@H](C)OC(=O)C(C)(C)C(=O)[C@H](C)[C@H]1O[C@@H]1O[C@H](C)C[C@H](N(C)C)[C@H]1O [Compound 114, (2S,3S,6R,8R,9R,10R)-9-(((2S,3R,4S,6R)-4-(dimethylamino)-3-hydroxy-6-methyltetrahydro-2H-pyran-2-yl)oxy)-8-methoxy-2,4,6,8,10,12,12-heptamethyl-3-((4-pivaloylpiperazin-1-yl)methyl)-1-oxa-4-azacyclotridecane-11,13-dione]	> 32	> 32	> 32	4 to 32 (≈ 5.74 to 45.9 µM)	> 32
CO[C@]1(C)C[C@@H](C)CN(C)[C@@H](C(=O)N2CCN(CC(F)(F)F)CC2)[C@H](C)OC(=O)C(C)(C)C(=O)[C@H](C)[C@H]1O[C@@H]1O[C@H](C)C[C@H](N(C)C)[C@H]1O [Compound 130, (2S,3R,6R,8R,9R,10R)-9-(((2S,3R,4S,6R)-4-(dimethylamino)-3-hydroxy-6-methyltetrahydro-2H-pyran-2-yl)oxy)-8-methoxy-2,4,6,8,10,12,12-heptamethyl-3-(4-(2,2,2-trifluoroethyl)piperazine-1-carbonyl)-1-oxa-4-azacyclotridecane-11,13-dione]	> 32	> 32	> 32	> 32	> 32
CCC(=O)N1CCN(C[C@H]2[C@H](C)OC(=O)C(C)(C)C(=O)[C@H](C)[C@@H](O[C@@H]3O[C@H](C)C[C@H](N(C)C)[C@H]3O)[C@](C)(OC)C[C@@H](C)CN2C)CC1 [Compound 133, (2S,3S,6R,8R,9R,10R)-9-(((2S,3R,4S,6R)-4-(dimethylamino)-3-hydroxy-6-methyltetrahydro-2H-pyran-2-yl)oxy)-8-methoxy-2,4,6,8,10,12,12-heptamethyl-3-((4-propionylpiperazin-1-yl)methyl)-1-oxa-4-azacyclotridecane-11,13-dione]	> 32	> 32	> 32	4 to 32 (≈ 5.98 to 47.8 µM)	> 32
CO[C@]1(C)C[C@@H](C)CN(C)[C@@H](CN2CCN(C(C)=O)CC2)[C@H](C)OC(=O)C(C)(C)C(=O)[C@H](C)[C@H]1O[C@@H]1O[C@H](C)C[C@H](N(C)C)[C@H]1O [Compound 135, (2S,3S,6R,8R,9R,10R)-3-((4-acetylpiperazin-1-yl)methyl)-9-(((2S,3R,4S,6R)-4-(dimethylamino)-3-hydroxy-6-methyltetrahydro-2H-pyran-2-yl)oxy)-8-methoxy-2,4,6,8,10,12,12-heptamethyl-1-oxa-4-azacyclotridecane-11,13-dione]	> 32	> 32	> 32	4 to 32 (≈ 6.11 to 48.9 µM)	> 32
